Laboratory results: patent US20250282830A1, “ANTI-VIRAL PEPTIDE COMPOSITIONS AND METHODS TO IMPROVE BIOLOGICAL ACTIVITY THEREOF” (priority 2021, published 2025)

How the values were obtained:
[1] = Time-lapse fluorescence microscopy imaging of peptide-induced vesicle rupture
Method: Highly parallel measurements of peptide-induced liposome rupture were conducted by time-lapsed epifluorescence microscopy imaging. An Eclipse Ti-E inverted microscope (Nikon) with a high-pressure mercury lamp, a CFI Plan Apochromat TIRF×60 oil-immersion objective (NA 1.49; Nikon) and an Andor iXon3 897 EMCCD camera (Andor Technology), was utilized for measurements. The samples were illuminated with a mercury lamp (Intenslight C-HGFIE) using a TRITC filter set. Briefly, glass coverslips were assembled into a microfluidic flow cell, and coated with a thin layer of PLL-g-PEG(-biotin), followed by tethering of 0.025 μg ml^−1 liposomes via biotin-neutravidin coupling. Peptide was then added at a volumetric rate of 100 μl min^−1, and micrographs were recorded every 5-30 s depending on the particular experiment. The initial time was defined by when the peptide solution entered the channel inlet. Data processing and analysis were conducted using ImageJ (National Institutes of Health) and Python(x,y) software packages. The diameter of individual liposomes was estimated based on fluorescence intensity values. […]
Using time-lapse fluorescence microscopy imaging, we further investigated the interactions of different versions of Peptides 2 and 4 with tethered vesicles at the single-vesicle level and saw different degrees of vesicle rupture in terms of total extent and speed (FIG. 14).

DENV-4 = assay: Plaque reduction neutralization assay, DENV-4; type: cell-based, Dengue virus serotype 4; conditions: Vero cells; virus pre-incubated with peptide 1 h at 37° C.; read-out: DENV-4 PRNT50
Method: (§1) Vero cells were seeded at 1×10^5 cells per well and incubated overnight. Twofold serial dilutions of peptide were incubated with 200-300 p.f.u. of virus for 1 h at 37° C. Cells were infected with the virus-peptide mixture for 1 h at 37° C. The inoculum was removed and 0.8% (wt/vol) methylcellulose in medium supplemented with 1% FBS was added. After 3-5 days incubation, plates were fixed and analysed for plaques by immunostaining (DENV). For immunostaining, the cells were fixed, followed by incubation with 4G2, a mouse anti-DENV E protein monoclonal antibody (1:2,000 dilution), for 16-20 h. After addition of a secondary antibody, goat anti-mouse IgG (H+L)-HRP conjugate (1:2,000 dilution), the TrueBlue peroxidase substrate (KPL) was added and the optical density was measured at a wavelength of 450 nm. For crystal violet staining, cells were fixed with fixing solution (5% glutaric dialdehyde in Dulbecco's PBS) followed by staining with 0.1% crystal violet in fixing solution. The IC50 value was calculated by comparing the relative number of plaques in peptide-treated samples to virus-only samples using a four-parameter logistic curve fit.

DENV-2 = assay: Plaque reduction neutralization assay, DENV-2; type: cell-based, Dengue virus serotype 2; conditions: Vero cells; virus pre-incubated with peptide 1 h at 37° C.; read-out: DENV-2 PRNT50
Method: as §1

DENV-3 = assay: Plaque reduction neutralization assay, DENV-3; type: cell-based, Dengue virus serotype 3; conditions: Vero cells; virus pre-incubated with peptide 1 h at 37° C.; read-out: DENV-3 PRNT50
Method: as §1

DENV-1 = assay: Plaque reduction neutralization assay, DENV-1; type: cell-based, Dengue virus serotype 1; conditions: Vero cells; virus pre-incubated with peptide 1 h at 37° C.; read-out: DENV-1 PRNT50
Method: as §1

Q: For “AESWLWEVWDWVLHVLSDFKTCLKAKF (Synthetic_Anti-viral peptide derived from hepatitis C virus NS5A protein) [Peptide 10]”, which “Vesicle rupture time, calcein (Cal) dye release” value (from here on “Vesicle rupture time, calcein”) ([1]; 100 nM peptide) is on record?
A: 2.38 ± 0.05 min

Q: What about the “Vesicle rupture time, rhodamine (Rh) dye release” value (shortened to “Vesicle rupture time, rhodamine”) ([1]; 100 nM peptide) of the same sequence?
A: 10.09 ± 0.10 min

Q: And the “Vesicle rupture time, calcein” value ([1]; 1000 nM peptide)?
A: 2.06 ± 0.02 min

Q: And the “Vesicle rupture time, rhodamine” value ([1]; 1000 nM peptide)?
A: 2.09 ± 0.05 min

Q: Which results are given for “AESWLWEVWDWVLHVLSDFKTCLKAKF [Peptide N10N]”?
A: IC50 (DENV-4): 720 nM; IC50 (DENV-2): 936 nM; IC50 (DENV-3): 259 nM; IC50 (DENV-1): 201 nM

Q: With “AESWLWEVWDWVLHVLSDFKTCLKAKF [Peptide N100]” as the sequence, how does the IC50 (DENV-4) read?
A: 1150 nM

Q: What about the IC50 (DENV-2) of the same sequence?
A: 362 nM

Q: What about the IC50 (DENV-3) of the same sequence?
A: 1110 nM

Q: And the IC50 (DENV-1)?
A: 194 nM

Q: With “AESWLWEVWDWVLHVLSDFKTCLKAKF [Peptide O100]” as the sequence, how does the IC50 (DENV-4) read?
A: 567 nM

Q: What about the IC50 (DENV-2) of the same sequence?
A: 396 nM

Q: What about the IC50 (DENV-3) of the same sequence?
A: 316 nM

Q: What about the IC50 (DENV-1) of the same sequence?
A: 60.3 nM

Q: Which “Vesicle rupture time, calcein” value ([1]; 100 nM peptide) does the source give for “DGNWLYDIWNWVCTVLADFKLWLGAKI (Synthetic_Anti-viral peptide derived from hepatitis C virus NS5A protein) [Peptide 9]” here?
A: 4.22 ± 0.17 min

Q: What about the “Vesicle rupture time, rhodamine” value ([1]; 100 nM peptide) of the same sequence?
A: 6.50 ± 0.07 min

Q: What about the “Vesicle rupture time, calcein” value ([1]; 1000 nM peptide) of the same sequence?
A: 1.41 ± 0.03 min

Q: And the “Vesicle rupture time, rhodamine” value ([1]; 1000 nM peptide)?
A: 1.87 ± 0.014 min

Q: Which results are given for “DGNWLYDIWNWVCTVLADFKLWLGAKI [Peptide N9N]”?
A: IC50 (DENV-4): 80.2 nM; IC50 (DENV-2): 550 nM; IC50 (DENV-3): 476 nM; IC50 (DENV-1): 96.9 nM

Q: Which IC50 (DENV-4) does the source give for “DGNWLYDIWNWVCTVLADFKLWLGAKI [Peptide N9O]” here?
A: 240 nM

Q: What about the IC50 (DENV-2) of the same sequence?
A: 185 nM

Q: And the IC50 (DENV-3)?
A: 262 nM

Q: And the IC50 (DENV-1)?
A: 139 nM

Q: What does the source list for “DGNWLYDIWNWVCTVLADFKLWLGAKI [Peptide O9O]”?
A: IC50 (DENV-4): 139 nM; IC50 (DENV-2): 192 nM; IC50 (DENV-3): 119 nM; IC50 (DENV-1): 50 nM

Q: Which “Vesicle rupture time, calcein” value ([1]; 100 nM peptide) does the source give for “GDDWLHDIWDWVCIVLSDFKTWLSAKI (Synthetic_Anti-viral peptide derived from hepatitis C virus NS5A protein) [Peptide 8]” here?
A: 2.49 ± 0.06 min

Q: And the “Vesicle rupture time, rhodamine” value ([1]; 100 nM peptide)?
A: 3.28 ± 0.08 min

Q: And the “Vesicle rupture time, calcein” value ([1]; 1000 nM peptide)?
A: 1.70 ± 0.02 min

Q: What about the “Vesicle rupture time, rhodamine” value ([1]; 1000 nM peptide) of the same sequence?
A: 1.78 ± 0.02 min

Q: Which results are given for “GDDWLHDIWDWVCIVLSDFKTWLSAKI [Peptide N8N]”?
A: IC50 (DENV-4): 194 nM; IC50 (DENV-2): 253 nM; IC50 (DENV-3): 271 nM; IC50 (DENV-1): 97.4 nM

Q: Which IC50 (DENV-4) does the source give for “GDDWLHDIWDWVCIVLSDFKTWLSAKI [Peptide N8O]” here?
A: 343 nM

Q: What about the IC50 (DENV-2) of the same sequence?
A: 257 nM

Q: And the IC50 (DENV-3)?
A: 648 nM

Q: And the IC50 (DENV-1)?
A: 224 nM

Q: Which results are given for “GDDWLHDIWDWVCIVLSDFKTWLSAKI [Peptide O8O]”?
A: IC50 (DENV-4): 709 nM; IC50 (DENV-2): 188 nM; IC50 (DENV-3): 444 nM; IC50 (DENV-1): 69.2 nM

Q: What does the source list for “GSTWLRDIWDWVCTVLSDFRVWLKSKL (Synthetic_Anti-viral peptide derived from hepatitis C virus NS5A protein) [Peptide 11]”?
A: Vesicle rupture time, calcein (Cal) dye release ([1]; 100 nM peptide): 4.15 ± 0.04 min; Vesicle rupture time, rhodamine (Rh) dye release ([1]; 100 nM peptide): 6.00 ± 0.13 min; Vesicle rupture time, calcein (Cal) dye release ([1]; 1000 nM peptide): 4.67 ± 0.08 min; Vesicle rupture time, rhodamine (Rh) dye release ([1]; 1000 nM peptide): 4.91 ± 0.38 min

Q: Which results are given for “GSTWLRDIWDWVCTVLSDFRVWLKSKL [Peptide N11N]”?
A: IC50 (DENV-4): 306 nM; IC50 (DENV-2): 924 nM; IC50 (DENV-3): 289 nM; IC50 (DENV-1): 591 nM

Q: With “GSTWLRDIWDWVCTVLSDFRVWLKSKL [Peptide N11O]” as the sequence, how does the IC50 (DENV-4) read?
A: 276 nM

Q: And the IC50 (DENV-2)?
A: 280 nM

Q: And the IC50 (DENV-3)?
A: 947 nM

Q: What about the IC50 (DENV-1) of the same sequence?
A: 131 nM

Q: For “GSTWLRDIWDWVCTVLSDFRVWLKSKL [Peptide O110]”, which IC50 (DENV-4) is on record?
A: 810 nM

Q: What about the IC50 (DENV-2) of the same sequence?
A: 1160 nM

Q: What about the IC50 (DENV-3) of the same sequence?
A: 490 nM

Q: And the IC50 (DENV-1)?
A: 258 nM

Q: With “SDDWLRIIWDWVCSVVSDFKAWLSAKI (Synthetic_Anti-viral peptide derived from hepatitis C virus NS5A protein) [Peptide 5]” as the sequence, how does the “Vesicle rupture time, calcein” value ([1]; 100 nM peptide) read?
A: 4.69 ± 0.22 min

Q: And the “Vesicle rupture time, rhodamine” value ([1]; 100 nM peptide)?
A: 15.25 ± 0.43 min

Q: What about the “Vesicle rupture time, calcein” value ([1]; 1000 nM peptide) of the same sequence?
A: 2.53 ± 0.10 min

Q: What about the “Vesicle rupture time, rhodamine” value ([1]; 1000 nM peptide) of the same sequence?
A: 11.20 ± 0.17 min
